The values that follow come from ChEMBL document CHEMBL1145716, “Fagomine isomers and glycosides from Xanthocercis zambesiaca” (J Nat Prod, 1997).

A value given as a limit tells only on which side of the number the result lay.

Assay [1] relates to Coffea arabica. The assay is described as follows: Inhibition of green coffee bean alpha-galactosidase at 1000 uM by spectrophotometry.
Assay [2] concerns Oryza sativa. The assay is described as follows: Inhibition of rice alpha-glucosidase at 1000 uM by glucose B-test.
The species named for assay [3] is Rattus norvegicus. Briefly: Inhibition of rat liver beta-galactosidase at 1000 uM by spectrophotometry.
Assay [4] is filed under the species Bos taurus. Briefly: Inhibition of bovine liver beta-galactosidase at 1000 uM by spectrophotometry.
Assay [5] concerns Prunus dulcis. Briefly: Inhibition of almond beta-glucosidase at 1000 uM by spectrophotometry.
For assay [6], the species on record is Rattus norvegicus. Briefly: Inhibition of rat liver lysosomal beta-glucosidase at 1000 uM by spectrophotometry.
Assay [7] deals with Sucrase-isomaltase, intestinal (Rattus norvegicus) (UniProt P23739). The assay is described as follows: Inhibition of Wistar rat intestinal isomaltase at 1000 uM by glucose B-test.
Sequence of Sucrase-isomaltase, intestinal (Rattus norvegicus) (P23739 1-1013 limits assumed): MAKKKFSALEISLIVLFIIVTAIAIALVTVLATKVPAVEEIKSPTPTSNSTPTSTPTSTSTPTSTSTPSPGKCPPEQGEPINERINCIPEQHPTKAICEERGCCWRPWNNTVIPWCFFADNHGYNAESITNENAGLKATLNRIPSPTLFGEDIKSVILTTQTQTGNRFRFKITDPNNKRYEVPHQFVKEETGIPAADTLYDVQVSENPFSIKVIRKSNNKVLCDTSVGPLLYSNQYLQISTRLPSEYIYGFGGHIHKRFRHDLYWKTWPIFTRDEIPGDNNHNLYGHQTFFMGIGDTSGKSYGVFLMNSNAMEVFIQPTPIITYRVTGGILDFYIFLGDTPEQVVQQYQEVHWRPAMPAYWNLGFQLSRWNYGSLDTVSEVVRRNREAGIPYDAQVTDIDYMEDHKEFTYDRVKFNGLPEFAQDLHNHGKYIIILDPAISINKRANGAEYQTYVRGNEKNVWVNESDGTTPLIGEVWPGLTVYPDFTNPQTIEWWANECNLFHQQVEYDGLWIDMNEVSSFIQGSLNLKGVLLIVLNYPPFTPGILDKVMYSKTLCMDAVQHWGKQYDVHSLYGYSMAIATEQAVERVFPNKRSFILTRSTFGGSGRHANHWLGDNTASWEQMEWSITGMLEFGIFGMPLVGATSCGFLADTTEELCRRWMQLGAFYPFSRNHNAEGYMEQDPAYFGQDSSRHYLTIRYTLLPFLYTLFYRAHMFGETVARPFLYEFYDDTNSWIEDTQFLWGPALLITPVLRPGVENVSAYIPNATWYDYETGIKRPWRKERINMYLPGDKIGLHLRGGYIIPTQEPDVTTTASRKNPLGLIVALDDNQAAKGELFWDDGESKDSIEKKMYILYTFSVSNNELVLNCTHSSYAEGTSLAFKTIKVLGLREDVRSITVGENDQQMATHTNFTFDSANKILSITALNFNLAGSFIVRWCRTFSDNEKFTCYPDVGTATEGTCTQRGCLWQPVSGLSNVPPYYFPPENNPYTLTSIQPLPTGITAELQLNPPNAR
Sequence of Sucrase-isomaltase, intestinal (Rattus norvegicus) (P23739 1014-1841 limits assumed): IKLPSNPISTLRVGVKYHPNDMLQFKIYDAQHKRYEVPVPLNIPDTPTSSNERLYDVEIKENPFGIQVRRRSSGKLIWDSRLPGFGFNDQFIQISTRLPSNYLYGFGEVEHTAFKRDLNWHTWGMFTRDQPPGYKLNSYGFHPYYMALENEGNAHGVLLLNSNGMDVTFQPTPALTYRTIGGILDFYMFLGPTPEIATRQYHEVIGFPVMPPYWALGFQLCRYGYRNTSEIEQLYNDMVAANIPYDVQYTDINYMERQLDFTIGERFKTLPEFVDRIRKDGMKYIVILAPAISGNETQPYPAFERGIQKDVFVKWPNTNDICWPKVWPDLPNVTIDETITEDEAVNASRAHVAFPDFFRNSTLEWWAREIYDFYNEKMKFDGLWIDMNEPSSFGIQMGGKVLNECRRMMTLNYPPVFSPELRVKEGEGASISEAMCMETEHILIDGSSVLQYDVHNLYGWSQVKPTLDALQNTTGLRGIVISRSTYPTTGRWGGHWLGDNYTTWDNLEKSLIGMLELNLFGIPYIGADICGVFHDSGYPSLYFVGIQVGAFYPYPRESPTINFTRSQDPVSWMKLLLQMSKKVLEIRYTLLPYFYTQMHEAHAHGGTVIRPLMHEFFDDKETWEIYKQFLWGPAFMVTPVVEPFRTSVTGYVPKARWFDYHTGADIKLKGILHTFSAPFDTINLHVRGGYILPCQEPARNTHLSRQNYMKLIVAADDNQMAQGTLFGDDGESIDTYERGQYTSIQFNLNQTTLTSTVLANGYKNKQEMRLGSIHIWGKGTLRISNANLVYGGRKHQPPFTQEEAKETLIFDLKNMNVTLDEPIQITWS
The species named for assay [8] is Rattus norvegicus. The assay is described as follows: Inhibition of rat liver lysosomal alpha-galactosidase at 1000 uM by spectrophotometry.
The species entered for assay [9] is Rattus norvegicus. The assay is described as follows: Inhibition of Wistar rat intestinal cellobiase at 1000 uM by glucose B-test.
A short description of assay [10]: Inhibition of rat liver beta-galactosidase by spectrophotometry.
Assay [11] can be described thus: Inhibition of bovine liver beta-galactosidase by spectrophotometry. On the set-up: species or system Bos taurus.
A short description of assay [12]: Inhibition of almond beta-glucosidase by spectrophotometry. More on the design: species or system Prunus dulcis.
Assay [13] concerns the target Sucrase-isomaltase, intestinal (Rattus norvegicus, UniProt P23739). Briefly: Inhibition of Wistar rat intestinal isomaltase by glucose B-test.
A short description of assay [14]: Inhibition of rice alpha-glucosidase by glucose B-test. More on the design: species or system Oryza sativa.
Assay [15] can be described thus: Inhibition of rat liver lysosomal beta-glucosidase by spectrophotometry.
The nature of assay [16]: Inhibition of Wistar rat intestinal cellobiase by glucose B-test.
The nature of assay [17]: Inhibition of green coffee bean alpha-galactosidase by spectrophotometry. On the set-up: species or system Coffea arabica.

Sequence of Sucrase-isomaltase, intestinal (P23739 1-1013 limits assumed): as the sequence (P23739 1-1013 limits assumed) above
Sequence of Sucrase-isomaltase, intestinal (P23739 1014-1841 limits assumed): as the sequence (P23739 1014-1841 limits assumed) above

The inhibition is the change of the read-out against control, counted positive when it falls. In the case of `OC[C@H]1NCC[C@@H](O[C@@H]2O[C@H](CO)[C@@H](O)[C@H](O)[C@H]2O)[C@@H]1O`, the inhibition in assay [1], in assay [2], in [3], in assay [4], in assay [5] and in [6] was below 50% in each case. Moreover, the inhibition in assay [7], in assay [8] and in assay [9] was below 50% in each case.

As for `OC[C@H]1NCC[C@H](O)[C@H]1O`, the inhibition in assay [1], in assay [2], in assay [3], in assay [4], in assay [5] and in assay [6] was below 50% each time. The inhibition in [7], in assay [8] and in assay [9] was below 50% each time.

A word on the IC50: it is the midpoint of a concentration-inhibition curve. On to `OC[C@H]1NCC[C@H](O)[C@@H]1O`, for which the IC50 worked out at 4 µM in [10]; 3 µM in [11]; 120 µM in assay [12]; 6 µM in [13]; 120 µM in [14]; 740 µM in [15]. In [16], this compound returned an IC50 of 100 µM. The inhibition in assay [1] and in assay [8] was below 50% in each case.

Consider `OC[C@H]1NCC[C@@H](O)[C@@H]1O[C@@H]1O[C@H](CO)[C@@H](O)[C@H](O)[C@H]1O`, for which the inhibition in assay [1], in [2], in assay [3], in assay [4], in assay [5] and in [6] was below 50% each time. Also, the inhibition in [7], in [8] and in assay [9] was below 50% throughout.

On to `OC[C@H]1NCC[C@@H](O)[C@@H]1O` [FAGOMINE], for which the IC50 came out at 15 µM in [10], 46 µM in assay [13], 320 µM in assay [14] and 56 µM in [17]. Also, the inhibition in assay [5], in assay [6], in assay [8] and in assay [9] was below 50% throughout.
